Patent US12129246B1, “Hydroquinazoline derivatives for the treatment of a disease or disorder” (Novartis AG, priority 2023, dated 2024)
Read-outs that look alike come from different tables or passages of the source.

Experiments:
[1] = molecular target: monkey NPR1 (Macaca fascicularis, UniProt A0A7N9DBT9); assay: Cellular cGMP production assay, monkey NPR1 expressing CHO-K1 cells (CisBio HTRF); format: cell-based; conditions: for Monkey NPR1 Amax (% of ANP): maximum cGMP production as percentage of the maximum cGMP produced with ANP
Method: (§1) Cellular cGMP is a major second messenger that mediates cell activities and is synthesized by activated NPR1 triggered by binding of the natural ligand ANP. […] The assay was performed according to manufacturer's instructions with minor deviations. […] All compound stocks were diluted in PBS+0.1% BSA at 2-fold the final assay concentration. After addition of 10 μL/well of assay buffer (PBS+0.1% BSA+1 mM IBMX) and 10 μL/well of the compounds in different concentrations (12-point dose-response with 3-fold dilutions from a top concentration of 30 μM), the plate was incubated for 30 min at 37° C. to allow for cGMP production. In parallel, a standard curve using a calibrator (contained in the kit) was generated. The cells were lysed and a mix of cGMP-d2 and anti-cGMP-cryptate was added and incubated for 1 h at room temperature. The readout was performed using an Envision plate reader (PerkinElmer) with an excitation wavelength of 317 nm and an emission wavelength of 665 nm. cGMP concentration (Delta F [° %]) was calculated according to the following formulae: […]

[2] = molecular target: T1, human NPR1 (Homo sapiens, UniProt P16066); assay: Cellular cGMP production assay, human NPR1 expressing CHO-K1 cells (CisBio HTRF); format: cell-based; conditions: for AC50: cGMP production, 30 min at 37° C., 12-point dose-response from 30 μM; for Human NPR1 Amax (% of ANP): maximum cGMP production as percentage of the maximum cGMP produced with ANP
T1 construct: host or cells: CHO-K1
T1 sequence (P16066 33-1061): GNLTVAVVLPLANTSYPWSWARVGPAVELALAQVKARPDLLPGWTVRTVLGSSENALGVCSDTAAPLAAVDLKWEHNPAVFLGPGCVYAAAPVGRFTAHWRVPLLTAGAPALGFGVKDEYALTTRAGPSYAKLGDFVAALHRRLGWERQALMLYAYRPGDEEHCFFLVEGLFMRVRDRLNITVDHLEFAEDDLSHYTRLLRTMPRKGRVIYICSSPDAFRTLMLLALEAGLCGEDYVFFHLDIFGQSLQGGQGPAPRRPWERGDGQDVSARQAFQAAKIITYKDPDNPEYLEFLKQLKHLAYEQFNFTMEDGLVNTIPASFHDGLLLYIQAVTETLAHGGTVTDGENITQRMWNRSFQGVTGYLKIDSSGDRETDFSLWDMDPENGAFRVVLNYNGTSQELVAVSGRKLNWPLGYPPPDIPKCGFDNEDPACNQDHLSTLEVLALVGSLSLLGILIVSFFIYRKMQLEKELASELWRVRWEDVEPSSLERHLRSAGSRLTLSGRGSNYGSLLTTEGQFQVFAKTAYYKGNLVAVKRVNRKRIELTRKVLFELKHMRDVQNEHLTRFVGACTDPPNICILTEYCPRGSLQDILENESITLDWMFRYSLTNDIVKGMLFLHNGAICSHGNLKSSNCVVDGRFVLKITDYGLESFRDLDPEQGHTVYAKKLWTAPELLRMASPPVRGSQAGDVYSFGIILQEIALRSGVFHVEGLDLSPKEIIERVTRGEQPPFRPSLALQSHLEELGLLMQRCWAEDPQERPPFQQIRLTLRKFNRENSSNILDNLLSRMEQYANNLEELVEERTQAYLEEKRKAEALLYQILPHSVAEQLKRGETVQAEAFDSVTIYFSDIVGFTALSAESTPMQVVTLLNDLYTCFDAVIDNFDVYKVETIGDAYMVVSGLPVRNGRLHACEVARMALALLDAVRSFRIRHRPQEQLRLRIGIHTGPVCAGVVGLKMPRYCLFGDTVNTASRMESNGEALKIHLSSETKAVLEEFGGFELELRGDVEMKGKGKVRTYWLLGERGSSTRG
Method: as §1

[3] = cGMP production, monkey NPR1 CHO-K1 cells, 30 min at 37° C., 12-point dose-response from 30 μM, read-out: Monkey NPR1 AC50

Sequence of monkey NPR1 (A0A7N9DBT9 entry or part of it): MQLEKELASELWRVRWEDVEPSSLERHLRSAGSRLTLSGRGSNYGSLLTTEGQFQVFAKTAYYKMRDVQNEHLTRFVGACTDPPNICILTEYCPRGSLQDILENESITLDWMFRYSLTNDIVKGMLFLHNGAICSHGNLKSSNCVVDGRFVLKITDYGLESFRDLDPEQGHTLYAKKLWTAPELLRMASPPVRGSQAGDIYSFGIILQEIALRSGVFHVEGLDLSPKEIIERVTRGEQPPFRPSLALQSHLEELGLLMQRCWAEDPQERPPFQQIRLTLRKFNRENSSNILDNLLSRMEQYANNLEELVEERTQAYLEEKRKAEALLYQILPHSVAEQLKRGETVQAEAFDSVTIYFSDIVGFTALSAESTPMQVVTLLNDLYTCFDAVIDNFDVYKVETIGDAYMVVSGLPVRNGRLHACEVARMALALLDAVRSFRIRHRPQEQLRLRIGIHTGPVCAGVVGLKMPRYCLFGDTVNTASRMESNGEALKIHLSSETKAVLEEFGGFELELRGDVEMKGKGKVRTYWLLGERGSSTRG

In the case of `CC[C@@H](N(C)c1nc2c(c(N[C@@H](CN3CCC[C@H](CF)C3)c3cnn(C)c3)n1)C[C@](C)(c1ccccc1)CC2)C12CC(C(=O)O)(C1)C2` [Compound 12, 3-((R)-1-(((R)-4-(((R)-2-((S)-3-(fluoromethyl)piperidin-1-yl)-1-(1-methyl-1H-pyrazol-4-yl)ethyl)amino)-6-methyl-6-phenyl-5,6,7,8-tetrahydroquinazolin-2-yl)(methyl)amino)propyl)bicyclo[1.1.1]pentane-1-carboxylic acid], the AC50 [1, 3] is reported as 73 nM, the “Monkey NPR1 Amax (% of ANP)” value ([1]; monkey NPR1 CHO-K1 cells) is reported as 95.099 % of ANP and the AC50 [2] is reported as 94 nM. For the same compound, the “Human NPR1 Amax (% of ANP)” value [2] was 96.068 % of ANP.
For `CC[C@@H](N(C)c1nc2c(c(N[C@@H](CN3CCC[C@H](C)C3)c3cnn(CC)c3)n1)C[C@H](c1cccc(F)c1)CC2)C12CC(C(=O)O)(C1)C2` [Compound 13, 3-((R)-1-(((R)-4-(((R)-1-(1-ethyl-1H-pyrazol-4-yl)-2-((S)-3-methylpiperidin-1-yl)ethyl)amino)-6-(3-fluorophenyl)-5,6,7,8-tetrahydroquinazolin-2-yl)(methyl)amino)propyl)bicyclo[1.1.1]pentane-1-carboxylic acid], the AC50 [1, 3] was 64 nM, the “Monkey NPR1 Amax (% of ANP)” value ([1]; monkey NPR1 CHO-K1 cells) was 100.145 % of ANP and the AC50 [2] was 94 nM. The “Human NPR1 Amax (% of ANP)” value [2] was 99.405 % of ANP.
For `CC[C@H]([C@H]1CC[C@H](C(=O)O)CC1)N(C)c1nc2c(c(N[C@@H](CN3CCC[C@H](C)C3)c3cnn(C)c3)n1)C[C@H](c1ccc(F)cc1)CC2` [Compound 14, (1R,4r)-4-((R)-1-(((R)-6-(4-fluorophenyl)-4-(((R)-1-(1-methyl-1H-pyrazol-4-yl)-2-((S)-3-methylpiperidin-1-yl)ethyl)amino)-5,6,7,8-tetrahydroquinazolin-2-yl)(methyl)amino)propyl)cyclohexane-1-carboxylic acid], the AC50 [1, 3] was 62 nM, the “Monkey NPR1 Amax (% of ANP)” value ([1]; monkey NPR1 CHO-K1 cells) was 88.286 % of ANP and the AC50 [2] was 97 nM. The “Human NPR1 Amax (% of ANP)” value [2] was 94.761 % of ANP.
With `CC[C@@H](Nc1nc2c(c(N[C@@H](CN3C4CCCC3CCC4)c3cnn(C)c3)n1)C[C@H](c1cccc(F)c1)CC2)[C@H]1CC[C@H](C(=O)O)CC1` [Compound 15, (1R,4r)-4-((R)-1-(((R)-4-(((R)-2-((1S,5S)-9-azabicyclo[3.3.1]nonan-9-yl)-1-(1-methyl-1H-pyrazol-4-yl)ethyl)amino)-6-(3-fluorophenyl)-5,6,7,8-tetrahydroquinazolin-2-yl)amino)propyl)cyclohexane-1-carboxylic acid] the AC50 [1] was 92 nM, the “Monkey NPR1 Amax (% of ANP)” value ([1]; monkey NPR1 CHO-K1 cells) was 109.175 % of ANP and the AC50 [2] was 102 nM. The “Human NPR1 Amax (% of ANP)” value [2] was 106.001 % of ANP.
With `CC[C@H]([C@H]1CC[C@H](C(=O)O)CC1)N(C)c1nc2c(c(N[C@@H](CN3C4CCCC3CC4)c3cnn(C)c3C)n1)C[C@H](c1cccc(F)c1)CC2` [Compound 16, (1R,4r)-4-((1R)-1-(((6R)-4-(((1R)-2-(8-azabicyclo[3.2.1]octan-8-yl)-1-(1,5-dimethyl-1H-pyrazol-4-yl)ethyl)amino)-6-(3-fluorophenyl)-5,6,7,8-tetrahydroquinazolin-2-yl)(methyl)amino)propyl)cyclohexane-1-carboxylic acid] the AC50 [1] was 47 nM, the “Monkey NPR1 Amax (% of ANP)” value ([1]; monkey NPR1 CHO-K1 cells) was 98.785 % of ANP and the AC50 [2] was 103 nM. For the same compound, the “Human NPR1 Amax (% of ANP)” value [2] was 100.021 % of ANP.
`CC[C@@H](Nc1nc2c(c(N[C@@H](CN3C4CCCC3CCC4)c3cnn(CC)c3)n1)C[C@H](c1cccc(F)c1)CC2)[C@H]1CC[C@H](C(=O)O)CC1` [Compound 17, (1R,4r)-4-((R)-1-(((R)-4-(((R)-2-((1S,5S)-9-azabicyclo[3.3.1]nonan-9-yl)-1-(1-ethyl-1H-pyrazol-4-yl)ethyl)amino)-6-(3-fluorophenyl)-5,6,7,8-tetrahydroquinazolin-2-yl)amino)propyl)cyclohexane-1-carboxylic acid] was tested, and the AC50 [1] was 68 nM, the “Monkey NPR1 Amax (% of ANP)” value ([1]; monkey NPR1 CHO-K1 cells) was 99.682 % of ANP and the AC50 [2] was 105 nM. For the same compound, the “Human NPR1 Amax (% of ANP)” value [2] was 97.959 % of ANP.
For `CC[C@H]([C@H]1CC[C@H](C(=O)O)CC1)N(C)c1nc2c(c(N[C@@H](CN3C4CCCC3CCC4)c3cnn(CC)c3)n1)C[C@H](c1cccc(F)c1)CC2` [Compound 18, (1R,4r)-4-((R)-1-(((R)-4-(((R)-2-((1S,5S)-9-azabicyclo[3.3.1]nonan-9-yl)-1-(1-ethyl-1H-pyrazol-4-yl)ethyl)amino)-6-(3-fluorophenyl)-5,6,7,8-tetrahydroquinazolin-2-yl)(methyl)amino)propyl)cyclohexane-1-carboxylic acid], the AC50 [1] was 71 nM, the “Monkey NPR1 Amax (% of ANP)” value ([1]; monkey NPR1 CHO-K1 cells) was 100.607 % of ANP and the AC50 [2] was 107 nM. For the same compound, the “Human NPR1 Amax (% of ANP)” value [2] was 97.609 % of ANP.
`CC[C@H]([C@H]1CC[C@H](C(=O)O)CC1)N(C)c1nc2c(c(N[C@@H](CN3CCC[C@H](CF)C3)c3cnn(C)c3)n1)C[C@H](c1cccc(F)c1)CC2` [Compound 19, (1R,4r)-4-((R)-1-(((R)-4-(((R)-2-((S)-3-(fluoromethyl)piperidin-1-yl)-1-(1-methyl-1H-pyrazol-4-yl)ethyl)amino)-6-(3-fluorophenyl)-5,6,7,8-tetrahydroquinazolin-2-yl)(methyl)amino)propyl)cyclohexane-1-carboxylic acid] was tested, and the AC50 [1, 3] was 82 nM, the “Monkey NPR1 Amax (% of ANP)” value ([1]; monkey NPR1 CHO-K1 cells) was 98.174 % of ANP and the AC50 [2] was 108 nM. The “Human NPR1 Amax (% of ANP)” value [2] was 100.504 % of ANP.
`CC[C@@H](Nc1nc2c(c(N[C@@H](CN3CCC[C@H](C)C3)c3cnn(C)c3)n1)C[C@](C)(c1ccccc1F)CC2)[C@H]1CC[C@H](C(=O)O)CC1` [Compound 20, (1R,4r)-4-((R)-1-(((R)-6-(2-fluorophenyl)-6-methyl-4-(((R)-1-(1-methyl-1H-pyrazol-4-yl)-2-((S)-3-methylpiperidin-1-yl)ethyl)amino)-5,6,7,8-tetrahydroquinazolin-2-yl)amino)propyl)cyclohexane-1-carboxylic acid] was tested, and the AC50 [1, 3] was 60 nM, the “Monkey NPR1 Amax (% of ANP)” value ([1]; monkey NPR1 CHO-K1 cells) was 92.710 % of ANP and the AC50 [2] was 109 nM. The “Human NPR1 Amax (% of ANP)” value [2] was 95.253 % of ANP.
In the case of `CC[C@@H]([C@H]1CC[C@@](F)(C(=O)O)CC1)N(C)c1nc2c(c(N[C@H](CN3CCC[C@@H](C)C3)c3cnn(C)c3)n1)C[C@@H](c1ccccc1)CC2` [Compound 21, (1S,4r)-1-fluoro-4-((S)-1-(methyl((S)-4-(((S)-1-(1-methyl-1H-pyrazol-4-yl)-2-((R)-3-methylpiperidin-1-yl)ethyl)amino)-6-phenyl-5,6,7,8-tetrahydroquinazolin-2-yl)amino)propyl)cyclohexane-1-carboxylic acid], the AC50 [1, 3] is reported as 93 nM, the “Monkey NPR1 Amax (% of ANP)” value ([1]; monkey NPR1 CHO-K1 cells) is reported as 101.974 % of ANP and the AC50 [2] is reported as 111 nM. The “Human NPR1 Amax (% of ANP)” value [2] was 96.122 % of ANP.
In the case of `CC[C@@H](Nc1nc2c(c(N[C@@H](CN3CCC[C@H](C)C3)c3cnn(C(C)C)c3)n1)C[C@H](c1ccccc1)CC2)[C@H]1CC[C@H](C(=O)O)CC1` [Compound 22, (1R,4r)-4-((R)-1-(((R)-4-(((R)-1-(1-isopropyl-1H-pyrazol-4-yl)-2-((S)-3-methylpiperidin-1-yl)ethyl)amino)-6-phenyl-5,6,7,8-tetrahydroquinazolin-2-yl)amino)propyl)cyclohexane-1-carboxylic acid], the AC50 [1, 3] is reported as 74 nM, the “Monkey NPR1 Amax (% of ANP)” value ([1]; monkey NPR1 CHO-K1 cells) is reported as 103.742 % of ANP and the AC50 [2] is reported as 114 nM. The “Human NPR1 Amax (% of ANP)” value [2] was 102.676 % of ANP.
